Data on 7 compounds can be found in ChEMBL document CHEMBL1139835, “Novel quinolizidinyl derivatives as antiarrhythmic agents” (J Med Chem, 2007).

The test system of assay [1] is Heart. Kind of assay: Heart rate in spontaneously beating Langendorff-perfused guinea pig heart at 10 nM. It counts as functional, Cavia porcellus. On the set-up: unit not given here.
Assay [2] deals with Heart. As to the kind of experiment: Atrioventricular conduction time in spontaneously beating Langendorff-perfused guinea pig heart at 10 nM. It counts as functional, Cavia porcellus.
The subject of assay [3] is Heart. As to the kind of experiment: Heart rate in spontaneously beating Langendorff-perfused guinea pig heart at 1 nM. It counts as functional, Cavia porcellus. Details: unit not given here.
Assay [4] in a line: Activity against alternating current-induced arrhythmia in guinea pig left atrium at 10 uM. It is filed as functional, Cavia porcellus, Cardiac atrium.
In assay [5] the test system is Heart. Kind of assay: Ventricular action potential duration in spontaneously beating Langendorff-perfused guinea pig heart at 0.1 uM. It is filed as functional, Cavia porcellus.
Assay [6] has as its system Heart. Kind of assay: Intraventricular conduction time in spontaneously beating Langendorff-perfused guinea pig heart at 0.1 uM. It counts as functional, Cavia porcellus.
Assay [7] concerns Heart. As to the kind of experiment: Intraventricular conduction time in spontaneously beating Langendorff-perfused guinea pig heart at 1 nM. It counts as functional, Cavia porcellus.
In assay [8] the test system is Heart. Kind of assay: Atrioventricular conduction time in spontaneously beating Langendorff-perfused guinea pig heart at 1 uM. It is filed as functional, Cavia porcellus.
Assay [9] is described as follows: Negative chronotropic activity assessed as decrease in atrial rate in isolated guinea pig right atrium at 10 uM relative to control. Details: scale not given: the % may be the effect or the level left. It counts as functional, Cavia porcellus, Cardiac atrium.
Assay [10] has as its system Heart. As to the kind of experiment: Heart rate in spontaneously beating Langendorff-perfused guinea pig heart at 1 uM. It counts as functional, Cavia porcellus. Details: unit not given here.
Assay [11] can be described thus: Negative inotropic activity assessed as decrease in developed tension in isolated guinea pig left atrium at 50 nM relative to control. It counts as functional, Cavia porcellus, Cardiac atrium. On the set-up: scale not given: the % may be the effect or the level left.
In assay [12] the test system is Heart. Kind of assay: Intraventricular conduction time in spontaneously beating Langendorff-perfused guinea pig heart at 1 uM. It is filed as functional, Cavia porcellus.
For assay [13], the system named is Heart. As to the kind of experiment: Ventricular action potential duration in spontaneously beating Langendorff-perfused guinea pig heart at 10 uM. It is filed as functional, Cavia porcellus.
Assay [14] relates to Heart. As to the kind of experiment: Intraventricular conduction time in spontaneously beating Langendorff-perfused guinea pig heart at 10 uM. It counts as functional, Cavia porcellus.
In assay [15] the test system is Heart. As to the kind of experiment: Atrioventricular conduction time in spontaneously beating Langendorff-perfused guinea pig heart at 0.1 uM. It is filed as functional, Cavia porcellus.
The test system of assay [16] is Heart. Kind of assay: Heart rate in spontaneously beating Langendorff-perfused guinea pig heart at 10 uM. Details: unit not given here. It is filed as functional, Cavia porcellus.
Assay [17] is described as follows: Activity against alternating current-induced arrhythmia in guinea pig left atrium. It counts as functional, tissue-based. The note with it: Cavia porcellus, Cardiac atrium.
Assay [18] concerns Heart. Kind of assay: Ventricular action potential duration in spontaneously beating Langendorff-perfused guinea pig heart at 1 uM. It is filed as functional, Cavia porcellus.
Assay [19] has as its system Heart. As to the kind of experiment: Ventricular action potential duration in spontaneously beating Langendorff-perfused guinea pig heart at 1 nM. It is filed as functional, Cavia porcellus.
The subject of assay [20] is Heart. Kind of assay: Ventricular action potential duration in spontaneously beating Langendorff-perfused guinea pig heart at 10 nM. It counts as functional, Cavia porcellus.
Assay [21] deals with Heart. Kind of assay: Atrioventricular conduction time in spontaneously beating Langendorff-perfused guinea pig heart at 10 uM. It is filed as functional, Cavia porcellus.
Assay [22] deals with Heart. As to the kind of experiment: Heart rate in spontaneously beating Langendorff-perfused guinea pig heart at 0.1uM. It is filed as functional, Cavia porcellus. Details: unit: beats/min.
In assay [23] the test system is Aorta. Kind of assay: Inhibition of calcium-induced contraction of potassium ion depolarized guinea pig aortic strips at 50 uM. It is filed as functional. The settings on record: Cavia porcellus.
In assay [24] the test system is Heart. Kind of assay: Atrioventricular conduction time in spontaneously beating Langendorff-perfused guinea pig heart at 1 nM. It counts as functional, Cavia porcellus.
Assay [25] concerns Heart. Kind of assay: Intraventricular conduction time in spontaneously beating Langendorff-perfused guinea pig heart at 10 nM. It is filed as functional, Cavia porcellus.
The nature of assay [26]: Negative inotropic activity assessed as decrease in developed tension in isolated guinea pig left atrium. The note with it: Cavia porcellus, Cardiac atrium. It counts as functional, tissue-based.
Assay [27] has as its system Aorta. Kind of assay: Inhibition of calcium-induced contraction of potassium ion depolarized guinea pig aortic strips at 100 uM. It is filed as functional. The settings on record: Cavia porcellus.
Assay [28] is described as follows: Negative inotropic activity assessed as decrease in developed tension in isolated guinea pig left atrium at 0.1 uM relative to control. It is filed as functional, Cavia porcellus, Cardiac atrium. On the set-up: scale not given: the % may be the effect or the level left.
Assay [29] can be described thus: Positive chronotropic activity in isolated guinea pig right atrium relative to control. It counts as functional, Cavia porcellus, Cardiac atrium.
Assay [30] can be described thus: Negative inotropic activity assessed as decrease in developed tension in isolated guinea pig left atrium at 0.5 uM relative to control. It is filed as functional, Cavia porcellus, Cardiac atrium. On the set-up: scale not given: the % may be the effect or the level left.
The nature of assay [31]: Activity against alternating current-induced arrhythmia in guinea pig left atrium at 50 uM. It counts as functional, Cavia porcellus, Cardiac atrium.
Assay [32] is described as follows: Negative chronotropic activity assessed as decrease in atrial rate in isolated guinea pig right atrium at 100 uM relative to control. Details: scale not given: the % may be the effect or the level left. It is filed as functional, Cavia porcellus, Cardiac atrium.
Assay [33] can be described thus: Activity against alternating current-induced arrhythmia in guinea pig left atrium at 5 uM. It is filed as functional, Cavia porcellus, Cardiac atrium.
Assay [34] is described as follows: Negative inotropic activity assessed as decrease in developed tension in isolated guinea pig left atrium at 1 uM relative to control. Details: scale not given: the % may be the effect or the level left. It counts as functional, Cavia porcellus, Cardiac atrium.
The nature of assay [35]: Negative chronotropic activity assessed as decrease in atrial rate in isolated guinea pig right atrium at 5 uM relative to control. It is filed as functional, Cavia porcellus, Cardiac atrium. Details: scale not given: the % may be the effect or the level left.
Assay [36] is described as follows: Activity against alternating current-induced arrhythmia in guinea pig left atrium at 1 uM. It is filed as functional, Cavia porcellus, Cardiac atrium.
A short description of assay [37]: Negative inotropic activity assessed as decrease in developed tension in isolated guinea pig left atrium at 10 uM relative to control. It is filed as functional, Cavia porcellus, Cardiac atrium. On the set-up: scale not given: the % may be the effect or the level left.
Assay [38] is described as follows: Negative inotropic activity assessed as decrease in developed tension in isolated guinea pig left atrium at 50 uM relative to control. It counts as functional, Cavia porcellus, Cardiac atrium. Details: scale not given: the % may be the effect or the level left.
The nature of assay [39]: Positive chronotropic activity in isolated guinea pig right atrium at 1 uM relative to control. It counts as functional, Cavia porcellus, Cardiac atrium.
Assay [40] in a line: Positive chronotropic activity in isolated guinea pig right atrium at 5 uM relative to control. It counts as functional, Cavia porcellus, Cardiac atrium.

pEC50: −log10 of the molar value.

Regarding `Cc1cccc(C)c1OC[C@@H]1CCCN2CCCC[C@H]12`, the Activity in [1] worked out at 215; in assay [2] it was 64 ms; in assay [3], 218; in [4], 176%; in [5], 170 ms; in assay [6], 28 ms. The Activity in [7] was determined as 30 ms; in [8], 68 ms; in [9] it was 19%; in assay [10], 206; in assay [11] it was 25%; in assay [12], 30 ms. Moreover, the Activity in [13] is given as 210 ms; in assay [14], 31 ms; in [15], 66 ms; in assay [16], 203; in [18], 200 ms; in assay [19], 155 ms. Moreover, the Activity in assay [20] worked out at 160 ms; in [21], 70 ms; in [22], 210; in assay [24] it was 60 ms; in assay [25], 30 ms. This compound gave a pEC50 in [17] of 6.34. In addition, in [23], the inhibition at 50 µM stood at 26%.
As for `Cc1cccc(C)c1OC[C@H]1CCCN2CCCC[C@H]12`, the pEC50 in assay [26] was 7.85. Moreover, the values for the Activity in [4], in assay [9] and in assay [28] were 35%, 13% and 68%, respectively. For the same compound, in [27], the inhibition at 100 µM is 21%.
Take `CCN(CC)CCNC(=O)c1ccc(N)cc1` [PROCAINAMIDE]: the negative-log EC50 (pEC50) in assay [26] was 7.85. Also, the inhibition at 100 µM in [27] worked out at 3%. Also, the results for the Activity in assay [29], in assay [30] and in assay [31] were 9%, 92% and 11%, respectively.
As to `Cc1cc(NS(C)(=O)=O)cc(C)c1OC[C@@H]1CCCN2CCCC[C@H]12`, the figures for the pEC50 in assay [26] and in assay [17] were 7.51 and 5.90, respectively. The Activity in assay [32] is 12%; in assay [33], 60%; in assay [34] it was 83%. Moreover, in assay [27], the inhibition at 100 µM worked out at 30%.
Regarding `Cc1cc([N+](=O)[O-])cc(C)c1OC[C@H]1CCCN2CCCC[C@H]12`, the pEC50 in assay [26] is 6.22. Besides, the values for the Activity in [35], in assay [36] and in [37] were 25%, 23% and 83%, respectively. The inhibition at 50 µM in assay [23] stood at 19%.
As for `Cc1cccc(C)c1NC(=O)C[C@@H]1CCCN2CCCC[C@H]12`, the Activity in [38] is 95%; in assay [39] it was 8%; in assay [31] it was 78%. For the same compound, the pEC50 in assay [26] is 6.21; in assay [17], 5.24. For the same compound, the inhibition at 100 µM in [27] is 5%.
As for `CCN(CC)CC(=O)Nc1c(C)cccc1C` [LIDOCAINE], in assay [26], the pEC50 was 7.77. In addition, the inhibition at 100 µM in assay [27] came out at 14%. The Activity in [40] is given as 29%; in [34] it was 88%; in assay [31], 34%.

As a reminder, the pEC50 is the negative decadic logarithm of the EC50, by convention in mol/L. The inhibition is the drop in the measured response relative to a control, in per cent.
